Format in all cases: biochemical
Test [1] deals with CDK2 enzyme, complexed with cyclin A (Homo sapiens, UniProt P24941). The test is described as follows: CDK2 cyclin dependent kinase assay, phosphorylation of synthetic peptide […] (33P-ATP filtration). As to conditions: 0.1 mM ATP. The procedure: (§1) The assay mixture containing the inhibitor and CDK2 enzyme, complexed with cyclin A (0.4 U/ml) was mixed together in a microtiter plate in a final volume of 50 μl and incubated for 40 min at 30° C. The assay mixture contained 0.1 mM unlabeled ATP, 0.01 μCi/μl ^33P-γ-ATP, 0.03 mM peptide, 0.1 mg/ml BSA, 7.5 mM magnesium acetate, 50 mM HEPES-NaOH, pH 7.5. The reaction was stopped by adding 50 μl of 50 mM phosphoric acid. 90 μl of the mixture were transferred to a pre-wetted 96-well Multiscreen MAPHNOB filtration plate (Millipore) and filtered on a vacuum manifold. The filter plate was washed with three successive additions of 200 μl 50 mM phosphoric acid and then with 100 μl methanol. The filtration plate was dried for 10 min at 65° C., scintillant added and phosphorylated peptide quantified in a scintillation counter (Trilux, PerkinElmer).
HEPES is N-[2-hydroxyethyl]piperazine-N′-[2-ethanesulfonic acid]. BSA is bovine serum albumin.

For the next test, the target named is T1, PDK1 enzyme (Homo sapiens, UniProt O15530).
T1 sequence (O15530 1-556): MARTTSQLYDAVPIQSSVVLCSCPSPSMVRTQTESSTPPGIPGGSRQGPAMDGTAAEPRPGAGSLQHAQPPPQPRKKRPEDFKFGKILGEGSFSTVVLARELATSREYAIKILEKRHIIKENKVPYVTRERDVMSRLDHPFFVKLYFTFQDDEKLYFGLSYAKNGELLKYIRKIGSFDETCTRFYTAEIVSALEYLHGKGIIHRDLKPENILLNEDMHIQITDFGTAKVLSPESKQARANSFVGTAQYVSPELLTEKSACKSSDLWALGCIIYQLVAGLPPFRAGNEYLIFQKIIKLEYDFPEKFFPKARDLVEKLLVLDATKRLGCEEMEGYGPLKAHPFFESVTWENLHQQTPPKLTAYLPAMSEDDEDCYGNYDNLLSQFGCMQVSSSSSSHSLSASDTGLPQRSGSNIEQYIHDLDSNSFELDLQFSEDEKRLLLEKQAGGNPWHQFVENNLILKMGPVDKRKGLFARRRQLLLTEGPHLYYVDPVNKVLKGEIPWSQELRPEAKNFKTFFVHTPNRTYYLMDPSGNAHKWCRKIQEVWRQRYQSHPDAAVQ
As to the kind of experiment: PDK1 3'-phosphoinositide-dependent kinase assay, phosphorylation of synthetic peptide (33P-ATP filtration). As to conditions: 0.01 mM ATP, read-out: PDK1 IC50. As for the experimental part: as §1, with “and PDK1 enzyme” for “and CDK2 enzyme, complexed with cyclin A (0.4 U/ml)”, “for 60” for “for 40”, “contained 0.01” for “contained 0.1”, “^33P-γ-ATP, 0.075” for “^33P-γ-ATP, 0.03”, “acetate, 0.05 M Tris.HCl,” for “acetate, 50 mM HEPES-NaOH,”, “pH 7.5, 0.5% 2-mercaptoethanol.” for “pH 7.5.”

The target of another test is T2, Chk1 (Homo sapiens, UniProt O14757).
T2 sequence (O14757 1-476): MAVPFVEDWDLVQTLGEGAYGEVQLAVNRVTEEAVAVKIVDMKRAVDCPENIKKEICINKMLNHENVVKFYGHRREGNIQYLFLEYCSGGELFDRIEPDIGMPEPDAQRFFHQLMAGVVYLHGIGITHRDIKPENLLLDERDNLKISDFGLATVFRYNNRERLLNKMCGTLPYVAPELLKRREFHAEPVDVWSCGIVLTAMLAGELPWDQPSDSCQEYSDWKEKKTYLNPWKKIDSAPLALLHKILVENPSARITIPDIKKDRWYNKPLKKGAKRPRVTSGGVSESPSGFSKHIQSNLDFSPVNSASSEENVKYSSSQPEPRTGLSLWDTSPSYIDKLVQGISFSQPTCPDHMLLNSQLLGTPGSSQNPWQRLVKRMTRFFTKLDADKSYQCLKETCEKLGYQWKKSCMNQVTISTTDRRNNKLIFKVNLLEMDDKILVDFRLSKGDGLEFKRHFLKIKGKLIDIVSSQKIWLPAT
As to the kind of experiment: Chk1 kinase assay, phosphorylation of Chktide (33P-ATP filtration). As to conditions: 0.01 mM ATP, read-out: Chk1 IC50. The procedure:
Assays for the Chk1 kinase activity were carried out by monitoring the phosphorylation of a synthetic peptide Chktide with the amino acid sequence, […]. The assay mixture containing the inhibitor and Chk1 enzyme was mixed together in a microtiter plate in a final volume of 50 μl and incubated for 40 minutes at 30° C.
The assay mixture contained 0.01 mM unlabeled ATP, 0.5 μCi ^33P-γ-ATP, 30 μM Chktide, 0.1 mg/ml BSA, 50 mM Hepes-NaOH pH 7.5 and 11 nM GST-Chk1 enzyme. The reaction was stopped by adding 50 μl of 50 mM phosphoric acid. 90 μl of the mixture was transferred to a pre-wetted 96-well Multiscreen MAPHNOB filtration plate (Millipore) and filtered on a vacuum manifold. The filter plate was washed with three successive additions of 200 μl 50 mM phosphoric acid and then with 100 μl methanol. The filtration plate was dried for 10 min at 65° C., scintillant added and phosphorylated peptide quantified in a scintillation counter (Trilux, PerkinElmer).

Read-outs that look alike come from different tables or passages of the source.

As a reminder, the IC50 is the concentration needed to halve the response being measured. As to `CCOc1cc(Nc2ccc(S(N)(=O)=O)cc2)n2ncnc2n1` [Example 12], the results for the IC50 (in test [1] (Table 1); at PDK1 enzyme (Table 1); at Chk1 (Table 1)) were 13 µM, more than 200 µM and more than 200 µM, respectively.
Consider `NS(=O)(=O)c1ccc(Nc2cc(Oc3ccccc3)nc3ncnn23)cc1` [Example 13], for which the values for the IC50 (in test [1] (Table 1); on PDK1 enzyme (Table 1); at Chk1 (Table 1)) were 20.1 µM, more than 200 µM and more than 200 µM, respectively.
`Clc1cc(NCc2ccccc2)n2ncnc2n1` [Example 6]: the concentration for half-maximal inhibition (IC50) in test [1] (Table 1) was 85 µM; at PDK1 enzyme (Table 1), more than 200 µM; at Chk1 (Table 1), more than 200 µM.
Consider `COc1ccc(Nc2cc(-c3cccc(Cl)c3)nc3ncnn23)cn1` [Example 40], for which the half-inhibitory concentration (IC50) in test [1] (Table 1) is 8.29 µM; at PDK1 enzyme (Table 1), more than 200 µM; on Chk1 (Table 1), more than 200 µM.
As for `CCOC(=O)c1ccc(Nc2cc(Cl)nc3ncnn23)cc1` [Example 53], the IC50 (in test [1] (Table 1); on PDK1 enzyme (Table 1); on Chk1 (Table 1)) was more than 200 µM each time.
In the case of `CCN(c1cc(Nc2ccc(S(C)(=O)=O)cc2)n2ncnc2n1)C(C)C` [Example 85], the half-inhibitory concentration (IC50) is 0.86 µM in test [1] (Table 2), 2.89 µM at PDK1 enzyme (Table 2) and more than 200 µM at Chk1 (Table 2).
Take `NS(=O)(=O)c1ccc(Nc2cc(-c3cccc(F)c3)n3ncnc3n2)cc1` [Example 118]: the IC50 in test [1] (Table 3) amounted to 116 µM; on PDK1 enzyme (Table 3), 6.28 µM; at Chk1 (Table 3), 1.54 µM.
Regarding `COc1ccc(Br)cc1-c1cc(N[C@H]2CC[C@H](O)CC2)n2ncnc2n1` [Example 16], the IC50 is 48 µM in test [1] (Table 1), more than 200 µM on PDK1 enzyme (Table 1) and more than 200 µM on Chk1 (Table 1).
On to `CS(=O)(=O)c1ccc(Nc2cc(NC3C4CC5CC(C4)CC3C5)nc3ncnn23)cc1` (stereo not drawn) [Example 102], for which the IC50 is 10.9 µM in test [1] (Table 2), 3.55 µM at PDK1 enzyme (Table 2) and 59.4 µM on Chk1 (Table 2).
For the compound `CC(C)Nc1cc(Nc2ccc(S(N)(=O)=O)cc2)n2ncnc2n1` [Example 9], the concentration for half-maximal inhibition (IC50) in test [1] (Table 1) was 0.89 µM; on PDK1 enzyme (Table 1), more than 200 µM; at Chk1 (Table 1), more than 200 µM.
Consider `Cc1cccc(-c2cc(Nc3ccc(N4CCN(C)CC4)cc3)nc3ncnn23)c1` [Example 109], for which the IC50 in test [1] (Table 3) was more than 200 µM; at PDK1 enzyme (Table 3), 36 µM; at Chk1 (Table 3) it was 6.7 µM.
For the compound `CN1CCN(c2cc(Nc3ccc(S(C)(=O)=O)cc3)n3ncnc3n2)CC1` [Example 63], the half-inhibitory concentration (IC50) in test [1] (Table 2) is 46.2 µM; at PDK1 enzyme (Table 2), more than 200 µM; at Chk1 (Table 2) it was more than 200 µM.
`NS(=O)(=O)c1ccc(Nc2cc(N3CCCC3)nc3ncnn23)cc1` [Example 20]: the IC50 in test [1] (Table 1) is 3.33 µM; on PDK1 enzyme (Table 1), more than 200 µM; on Chk1 (Table 1), more than 200 µM.
`CCN(CC)CCNC(=O)c1ccc(Nc2cc(-c3cccc(OCCN)c3)n3ncnc3n2)cc1` [Example 165]: the half-maximal inhibitory concentration (IC50) in test [1] (Table 4) stood at 7.89 µM; on PDK1 enzyme (Table 4) it was 0.81 µM; on Chk1 (Table 4), 1.4 µM.
Consider `CNc1cc(Nc2ccc(S(N)(=O)=O)cc2)n2ncnc2n1` [Example 66], for which the IC50 in test [1] (Table 2) is 4.19 µM; at PDK1 enzyme (Table 2) it was more than 200 µM; on Chk1 (Table 2), more than 200 µM.
As to `CCN(CC)c1cc(Nc2ccccc2)n2ncnc2n1` [Example 82], the IC50 in test [1] (Table 2) was 4.66 µM; on PDK1 enzyme (Table 2) it was more than 200 µM; on Chk1 (Table 2), more than 200 µM.
On to `NC(=O)c1ccc(Nc2cc(-c3cccc(F)c3)n3ncnc3n2)cc1` [Example 117], for which the IC50 was more than 200 µM in test [1] (Table 3), 7.3 µM on PDK1 enzyme (Table 3) and 3.05 µM on Chk1 (Table 3).
Take `CS(=O)(=O)c1ccc(Nc2cc(N)nc3ncnn23)cc1` [Example 97]: the IC50 is 20.3 µM in test [1] (Table 2), more than 200 µM on PDK1 enzyme (Table 2) and more than 200 µM on Chk1 (Table 2).
As to `CN(C)c1ccc(Nc2cc(Nc3ccc(S(C)(=O)=O)cc3)n3ncnc3n2)cc1` [Example 91], the half-maximal inhibitory concentration (IC50) was 4.83 µM in test [1] (Table 2), more than 200 µM on PDK1 enzyme (Table 2) and 14.2 µM at Chk1 (Table 2).
For `CCN(CC)CCNC(=O)c1ccc(Nc2cc(Cc3cc(OC)ccc3OC)n3ncnc3n2)cc1` [Example 128], the IC50 is more than 200 µM in test [1] (Table 3), more than 200 µM on PDK1 enzyme (Table 3) and 65.8 µM on Chk1 (Table 3).
For `NCCCOc1cccc(-c2cc(Nc3ccc(C(N)=O)cc3)nc3ncnn23)c1` [Example 147], the half-maximal inhibitory concentration (IC50) in test [1] (Table 4) was 71.7 µM; at PDK1 enzyme (Table 4), 6.13 µM; at Chk1 (Table 4), 5.21 µM.
Turning to `CS(=O)(=O)c1ccc(Nc2cc(NCC34CC5CC(CC(C5)C3)C4)nc3ncnn23)cc1` [Example 99], the IC50 in test [1] (Table 2) is 25.7 µM; on PDK1 enzyme (Table 2), more than 200 µM; on Chk1 (Table 2) it was more than 200 µM.
Consider `COc1ccc(OC)c(Cc2cc(Nc3ccc(C(N)=O)cc3)nc3ncnn23)c1` [Example 127], for which the 50% inhibitory concentration (IC50) in test [1] (Table 3) was more than 200 µM; on PDK1 enzyme (Table 3), more than 200 µM; at Chk1 (Table 3), 106 µM.
As to `CCN(CC)CCNC(=O)c1ccc(Nc2cc(-c3cccc(C#N)c3)nc3ncnn23)cc1` [Example 28], the IC50 in test [1] (Table 1) is 18.6 µM; at PDK1 enzyme (Table 1), more than 200 µM; at Chk1 (Table 1), more than 200 µM.
For `NC(=O)c1ccc(Nc2cc(-c3cccc(F)c3)nc3ncnn23)cc1` [Example 45], the 50% inhibitory concentration (IC50) in test [1] (Table 1) was 12.3 µM; on PDK1 enzyme (Table 1), more than 200 µM; at Chk1 (Table 1), more than 200 µM.
As to `O=S(=O)(c1ccc(Nc2cc(Cl)nc3ncnn23)cc1)N1CCOCC1` [Example 17], the 50% inhibitory concentration (IC50) was 16.7 µM in test [1] (Table 1), more than 200 µM on PDK1 enzyme (Table 1) and more than 200 µM on Chk1 (Table 1).
For `NS(=O)(=O)c1ccc(CNc2cc(Cl)nc3ncnn23)cc1` [Example 38], the IC50 in test [1] (Table 1) is 15 µM; at PDK1 enzyme (Table 1), more than 200 µM; at Chk1 (Table 1), more than 200 µM.
As to `NC(=O)c1cccc(Nc2cc(Cl)nc3ncnn23)c1` [Example 22], the half-maximal inhibitory concentration (IC50) is 36.7 µM in test [1] (Table 1), more than 200 µM on PDK1 enzyme (Table 1) and more than 200 µM on Chk1 (Table 1).
As to `NS(=O)(=O)c1ccc(Nc2cc(Nc3cccc(Cl)c3)nc3ncnn23)cc1` [Example 35], the concentration for half-maximal inhibition (IC50) turned out to be 1.72 µM in test [1] (Table 1), 48 µM on PDK1 enzyme (Table 1) and 40.5 µM at Chk1 (Table 1).
Regarding `CN(C)Cc1ccccc1-c1cc(Nc2cc(Cl)ccc2O)n2ncnc2n1` [Example 26], the values for the IC50 (in test [1] (Table 1); on PDK1 enzyme (Table 1); at Chk1 (Table 1)) were more than 200 µM, more than 200 µM and 105 µM, respectively.

Values taken from patent US20070275961A1, “Triazolo ' 1, 5-A ! Pyrimidines and Their Use in Medicine” (VERNALIS (CAMBRIDGE) LIMITED., priority 2003, published 2007).
